{"source": "patent US4870002A", "about": "“Method of prevention of oxidative injury to cells” (priority 1985, dated 1989)", "key": {"porcine RBCs": {"tested_on": "porcine RBCs", "assay": "Nonspecific binding of Lu-BSA to porcine RBCs (base-activated chemiluminescence)", "assay_type": "cell-based, pig", "conditions": "for activation at 1490 µM / inhibition at 1490 µM: Sus scrofa; for activation at 1490 µM: read-out: Percent difference from control", "procedure": "Blood was collected from Landrace-Duroc swine from a closed herd. Pigs from this herd had previously expressed episodes of porcine stress syndrome (malignant hyperthermia) following halothane anesthesia. The blood was collected into acidic citrated dextrose solution in standard blood bags. The blood was diluted 1:10 in phosphate (0.1M) buffered saline (PBS), pH 7.4, in 10 ml aliquots, centrifuged in a clinical centrifuge, and the erythrocytes were resuspended in fresh PBS. The cells were stored at 4° C. until used in the various assays. The post-collection chronological age of the RBCs used for a particular assay is noted in the results for each assay. The cells were counted in an automated cell counter (Coulter ZBI, Coulter Electronics, Inc., Hialeah, Fla. 33010). Nonspecific binding of Lu-BSA to porcine RBCs was measured following treatment with hydrogen peroxide, pyruvate, and/or 3-amino-L-tyrosine at 4°, 37°, or 45° C. The exposure times for those agents were 15 min, 30 min, or 72 hours. The reagents were removed by centrifugation. Three binding protocols were followed: (1) 0.25 ml of 1:20 RBCs (19 days post collection) were incubated with 0.25 ml of 1 mg/ml Lu-BSA in PBS, pH 6.9, for 30 min at 37° C. and washed (Table 1); (2) 0.05 ml of packed RBCs (less than 24 hours post collection) were resuspended in 0.2 ml of the Lu-BSA solution and incubated overnight at 4° C. […] The cells in all three protocols were washed once in PBS, pH 7.4, and resuspended in PBS to final dilutions of 1:20 for (1) and 1:30 for (2) and (3). Following this preparation, 100 μl of each cell suspension were added to 500 μl of PBS, pH 7.4, in a scintillation vial. The vial was placed in the photometer and the solution was activated by the addition of 100 μl 0.1N NaOH. The settings for the photometer were as previously described for the Con A-Lu-BSA."}, "[1]": {"assay": "Autoxidation of 3-amino-L-tyrosine solutions", "assay_type": "physicochemical", "conditions": "solutions yellow with age", "from_the_text": "The binding of 3-amino-L-tyrosine to the cell membrane via its alpha amino group, and the subsequent inhibition of CL by inhibiting the binding of Lu-BSA, is unlikely. […] The subsequent washing removes loosely bound 3-amino-L-tyrosine and the addition of the Lu-BSA at pH 6.9 favors BSA binding by the Schiff base reaction. […] The yellowing of 3-amino-L-tyrosine solutions with age is evidence of the oxidation."}, "horseradish peroxidase": {"molecular_target": "T1, horseradish peroxidase (Armoracia rusticana, UniProt P00433)", "T1 sequence (P00433 31-338 limits assumed)": "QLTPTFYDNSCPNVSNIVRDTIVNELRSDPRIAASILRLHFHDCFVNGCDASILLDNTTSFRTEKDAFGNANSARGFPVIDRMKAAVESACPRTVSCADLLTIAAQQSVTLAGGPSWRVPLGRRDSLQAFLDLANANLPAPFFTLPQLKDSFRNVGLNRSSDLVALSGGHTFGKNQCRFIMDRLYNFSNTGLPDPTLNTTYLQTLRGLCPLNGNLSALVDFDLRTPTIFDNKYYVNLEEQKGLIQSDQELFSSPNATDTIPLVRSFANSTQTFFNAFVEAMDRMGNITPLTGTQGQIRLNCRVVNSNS", "assay": "Inhibition of horseradish peroxidase", "assay_type": "biochemical", "conditions": "read-out: K1"}, "[2]": {"conditions": "1.49 mM preincubation and pyruvate 1.33 mM"}}, "note": "pKi: −log10 of the molar value. Where two headings read alike, the source gives them in different places."}
{"molecule": "Nc1cc(C[C@H](N)C(=O)O)ccc1O", "note": "[3-aminotyrosine, 3-amino-L-tyrosine]", "values": [{"measurement": "CL (counts/30 s)", "setting": "porcine RBCs; [2]", "result": "964 ± 230", "unit": "counts/30 s"}, {"measurement": "Percent difference from control", "setting": "porcine RBCs; [2]", "result": 9, "unit": "%"}, {"measurement": "Lu-BSA binding above the 37° C. control", "setting": "porcine RBCs; 1.49 mM with hydrogen peroxide 11.7 mM, 37° C.", "result": "≤ 14", "unit": "%"}, {"measurement": "CL (30 s)", "setting": "porcine RBCs; 1.49 mM with hydrogen peroxide 11.7 mM, 37° C., 30 min", "result": "663 ± 145", "unit": "counts/30 s"}, {"measurement": "Percent difference from control", "setting": "porcine RBCs; 1.49 mM with hydrogen peroxide 11.7 mM, 37° C., 30 min, vs 4° C. control", "result": 74, "unit": "%"}, {"measurement": "CL (30 s)", "setting": "porcine RBCs; 1.49 mM, 45° C., 30 min", "result": "550 ± 126", "unit": "counts/30 s"}, {"measurement": "CL (counts/30 s)", "setting": "porcine RBCs; 1.49 mM, preincubated at 4° C. for 72 h, RBCs 72 hours post collection", "result": "794 ± 156", "unit": "counts/30 s"}, {"measurement": "activation at 1490 µM", "setting": "porcine RBCs; 0.5 h, 1.49 mM, 45° C., 30 min, vs 4° C. control", "result": 45, "unit": "%"}, {"measurement": "activation at 1490 µM", "setting": "porcine RBCs; 72 h, 1.49 mM, preincubated at 4° C. for 72 h", "result": -10, "unit": "%"}, {"measurement": "inhibition at 1490 µM", "setting": "porcine RBCs; 1.49 mM, hydrogen peroxide 11.7 mM, 37° C., read-out: inhibition of Lu-BSA binding induced by hydrogen peroxide", "result": 51, "unit": "%"}, {"measurement": "inhibition at 1490 µM", "setting": "porcine RBCs; RBCs stored at 4° C. in 1.49 mM for 72 hours, read-out: less Lu-BSA bound than RBCs stored in PBS", "result": 10, "unit": "%"}, {"measurement": "protection from the effects of pyruvate (Lu-BSA binding), in words", "setting": "porcine RBCs; cells preincubated in 1.49 mM, then pyruvate 1.33 mM", "result": "protected them from the effects of pyruvate"}, {"measurement": "autoxidation in solution, in words", "setting": "[1]", "result": "readily, autoxidizes"}, {"measurement": "pKi", "setting": "horseradish peroxidase", "result": 5.30}]}
